What was measured:
[1] = biological target: T1, human recombinant dopamine D3 receptor (Homo sapiens, UniProt P35462); experiment: inhibition of [125I]iodosulpride binding, D3 receptor; details: for selectivity ratio, D2 receptor affinity relative to D3 receptor affinity: D2 vs D3, times lower affinity at D2; for Ki: [125I]iodosulpride binding, cells expressing human recombinant receptor, read-out: affinity for the D3 receptor
T1 construct: expressed in transfected cells
Experimental: (§1) The activity of the derivatives of formula (I) according to the invention was evaluated with respect to cells expressing human recombinant dopamine receptors. The inhibition constants (Ki) were measured by inhibition of [^125I]iodosulpride binding as described by Sokoloff et al. (1992). The degree of stimulation of the D3 receptor was determined by measuring the incorporation of [^3H]-thymidine in NG 108-15 cells expressing the D3 receptor (Pilon et al., 1994; Sautel et al., 1995).

[2] = biological target: T2, human D3 receptor (Homo sapiens, UniProt P35462); experiment: mitogenesis assay, [3H]thymidine incorporation in NG 108-15 cells expressing the D3 receptor; format: cell-based; details: for EC50: read-out: 50% effective concentration (EC50), mitogenesis; for intrinsic activity (efficacy): relative to quinpirole (full agonist, efficacy 1), nafadotride is full antagonist (efficacy 0)
T2 construct: expressed in transfected cells; host or cells: NG 108-15 cells
T2 sequence (P35462 whole entry): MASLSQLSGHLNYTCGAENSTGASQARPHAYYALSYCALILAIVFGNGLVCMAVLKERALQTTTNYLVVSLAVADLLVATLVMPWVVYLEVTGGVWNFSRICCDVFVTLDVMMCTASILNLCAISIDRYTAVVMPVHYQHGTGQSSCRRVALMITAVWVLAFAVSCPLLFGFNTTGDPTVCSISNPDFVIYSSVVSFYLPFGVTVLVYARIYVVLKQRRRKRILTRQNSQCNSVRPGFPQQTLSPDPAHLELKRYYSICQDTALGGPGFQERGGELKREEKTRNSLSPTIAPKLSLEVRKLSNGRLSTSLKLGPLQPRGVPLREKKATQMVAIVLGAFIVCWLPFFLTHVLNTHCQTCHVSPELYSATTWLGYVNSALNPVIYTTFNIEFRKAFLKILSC
Experimental: The activity of the derivatives of formula (I) according to the invention was evaluated with respect to cells expressing human recombinant dopamine receptors.
I-28 activity in vitro towards recombinant D3 receptor has been determined using a validated mitogenesis assay which was performed as follows:
After a 24 h-culture, cells were washed twice with culture medium without fetal calf serum and incubated for 16 hours with drugs in four replicates. Then [^3H]thymidine (1 μCi per well) was added for 2 hours and cells were harvested by vacuum filtration through Whatman GF/C fiber filters using an automated cell harvester (Brandel-Beckman) and rinsed 10 times with 200 μl 50 mM potassium phosphate buffer containing 150 mM NaCl. Radioactivity retained on filters was counted by liquid scintagraphy.

[3] = biological target: T3, human recombinant dopamine D2 receptor (Homo sapiens, UniProt P14416); experiment: inhibition of [125I]iodosulpride binding, D2 receptor; details: cells expressing human recombinant receptor, read-out: affinity for the D2 receptor
T3 construct: expressed in transfected cells
T3 sequence (P14416 whole entry): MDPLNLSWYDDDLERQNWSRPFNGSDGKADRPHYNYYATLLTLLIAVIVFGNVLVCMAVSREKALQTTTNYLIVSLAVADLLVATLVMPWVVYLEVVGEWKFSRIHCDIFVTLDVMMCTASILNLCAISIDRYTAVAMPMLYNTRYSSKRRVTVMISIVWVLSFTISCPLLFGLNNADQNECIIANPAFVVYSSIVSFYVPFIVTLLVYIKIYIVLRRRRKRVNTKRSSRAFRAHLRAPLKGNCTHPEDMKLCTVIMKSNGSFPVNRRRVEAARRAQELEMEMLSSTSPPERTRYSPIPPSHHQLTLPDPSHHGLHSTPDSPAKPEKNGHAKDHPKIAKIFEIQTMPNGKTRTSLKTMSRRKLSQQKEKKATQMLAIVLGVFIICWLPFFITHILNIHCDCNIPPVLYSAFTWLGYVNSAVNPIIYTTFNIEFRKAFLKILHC
Experimental: as §1

[4] = system: spontaneous locomotor activity of mice; experiment: spontaneous locomotor activity during habituation in mice; format: in vivo
Experimental: (§2) Activity of I-28 in vivo was assessed by using a simple test recently developed (Leriche et al. 2003 and international PCT application WO 2004/084952).
(§3) Male Swiss mice (Charles River, France), weighing 26-28 g, were housed six per cage (25×15×13 cm), on a 12 h/12 h light/dark cycle (lights on at 07:00 a.m.), with food and water freely available. Room temperature ranged from 20° C. to 22° C. and humidity varied between 55% and 65%.
(§4) Dizocilpine (MK-801) [(+)-5-methyl-10,11-dihydro-5H-dibenzo[a,d]cyclohepten-5,10-imine maleate] (Sigma) was dissolved in saline (0.9% NaCl). I-28 was dissolved in a few drops of HCl and distilled water, and the pH of the solution was adjusted to pH 5 using NaOH. The doses of I-28 are expressed as the weight of the base. The compounds were injected i.p. in a volume of 5 ml·kg^−1.
All experiments were conducted between 2.00 p.m. and 6.00 p.m., and the animals were kept in the test room at least 1 hour before recording their activity. The locomotor activity was measured in an actimeter that was composed of eight individual activity cages (30×15×18 cm, with sawdust on the floor) transected by infrared beams (Imetronic, Pessac, France). […]
Mice were injected with either Vehicle (distilled water pH 5) or I-28 (0.1, 0.3, 1 or 3 mg·kg^−1), and their horizontal locomotor activity was measured for 30 minutes (spontaneous locomotor activity). […]

[5] = system: MK-801-induced hyperactivity in mice; experiment: MK-801-induced hyperactivity in mice; format: in vivo
Experimental: as §2, §3, §4
All experiments were conducted between 2.00 p.m. and 6.00 p.m., and the animals were kept in the test room at least 1 hour before recording their activity. The locomotor activity was measured in an actimeter that was composed of eight individual activity cages (30×15×18 cm, with sawdust on the floor) transected by infrared beams (Imetronic, Pessac, France). Counts for forward horizontal activity were incremented each time the animal moved from one-half part of the cage to the other, corresponding to disruption of two crossed parallel beams distant of 14 cm. In time-course studies, counts were summed every 5 minute.
Mice were injected with either Vehicle (distilled water pH 5) or I-28 (0.1, 0.3, 1 or 3 mg·kg^−1), and their horizontal locomotor activity was measured for 30 minutes (spontaneous locomotor activity). They were subsequently treated with saline or MK-801 (0.12 mg·kg^−1) and the activity was measured for 1 hour (MK-801-induced locomotor activity).

[6] = NG 108-15 cells transfected with the human D3 receptor

T1 sequence (P35462 whole entry): as the sequence (P35462 whole entry) above

selectivity ratio, D2 receptor affinity relative to D3 receptor affinity [1]	Ki [1] [nM]	EC50 [2, 6] [nM]	intrinsic activity (efficacy) [2]	Ki [3] [nM]	maximal response, % of that produced by quinpirole ([2]; NG 108-15 cells transfected with the human D3 receptor, mean ±SEM) [%]	blood-brain barrier passage ([5]; inferred from activity after systemic administration in mice)	SMILES	change of spontaneous activity ([4]; 3.0 mg·kg−1 i.p., P=0.042) [%]	effect on spontaneous locomotor activity during habituation ([4]; i.p., doses below 3.0 mg·kg−1, 30 minutes)	inhibition of MK-801-induced hyperactivity ([5]; mice, 0.3 mg·kg−1 i.p., P=0.031) [%]	inhibition of MK-801-induced hyperactivity ([5]; mice, 1.0 mg·kg−1 i.p., P=0.0073) [%]	inhibition of MK-801-induced hyperactivity ([5]; mice, 3.0 mg·kg−1 i.p., P=0.0012) [%]	ED50, inhibition of MK-801-induced hyperactivity ([5]; mice, i.p., MK-801 0.12 mg·kg−1)
160	0.71	2.2	0.85				O=C(NCCCCN1CCN(c2cccc(O)c2)CC1)C1=Cc2ccccc2CC1 [Example 4, N-[4-[(3-hydroxyphenyl)piperazine-1-yl]butyl]-3,4-dihydronaphtalene-2-carboxamide]						
	2.1	6.3	0.37	318	37±2	crosses the blood-brain barrier	N#Cc1cccc(N2CCN(CCCCNC(=O)C3=Cc4ccccc4CC3)CC2)c1 [I-28]	−25	no effect	36.7	46.6	57.3	about 0.3 mg·kg−1
			0				CCCCN1CCCC1CNC(=O)c1cc(C#N)c2ccccc2c1OC (centres unmarked) [nafadotride, reference compound]						
59	0.74			44			O=C(NCCCCN1CCN(c2cccc(O)c2)CC1)c1ccc2ccccc2c1 [reference compound]						

Source: patent US7875617B2, “3,4-dihydro-2-naphthamide derivatives as selective dopamine D3 ligands” (Institut National de la Sante et de la Recherche Medicale …, priority 2005, dated 2011)
